From US20220259593A1, “CONTROL OF MAMMALIAN GENE DOSAGE USING CRISPR” (The Regents of the University of California, priority 2019, published 2022)

Test system: K562 CRISPRi cells
Assay: Perturb-seq pooled growth measurement (sgRNA counts, growth phenotype γ, relative activity)
Assay type: cell-based, human
Conditions: sequencing read counts; for Perturb-seq pooled growth sgRNA counts, d5: 5 days of growth (day seven after transduction); for Perturb-seq pooled growth sgRNA counts, d10: 10 days of growth (day twelve after transduction); for Perturb-seq pooled growth sgRNA counts, T0: T0 = day two after transduction
Description: Finally, we sought to use intermediate-activity sgRNAs to explore relationships between expression levels of various genes and the resulting cellular phenotypes. To simultaneously measure gene expression levels and obtain rich phenotypes for a variety of sgRNA series, we used Perturb-seq, an experimental strategy that enables matched capture of the transcriptome and the identity of an expressed sgRNA for each individual cell in pools of cells (27, 31-33) (FIG. 12A). […] In addition to the single-cell transcriptomes, we measured bulk growth phenotypes conferred by sgRNAs in these cells.
To measure the growth rate defects conferred by each sgRNA for comparison with the transcriptional phenotypes, samples of 500,000 transduced cells were taken from the same transduced cell population used in the Perturb-seq experiment on days two, seven, and twelve after transduction. Genomic DNA was extracted using the Nucleospin Blood kit (Macherey-Nagel) and sgRNA amplicons were prepared as described previously and above (19), albeit with no genomic DNA digestion or gel purification, and sequenced on HiSeq 4000 as described above for the other screens. Growth phenotypes were calculated by comparing normalized sgRNA abundances at day seven and twelve to those at day two, as described above. […] Relative sgRNA activities measured at day seven (five days of growth) were used to assign sgRNA activities in further analysis.

Substance: EIF2S1_−_67827080.23-P1P2_01: sgRNA targeting EIF2S1, GAGCGAAACGCACGCTGAGG, SEQ ID NO: 139 (listed as DNA, chemistry not fully specified)
- Perturb-seq pooled growth sgRNA counts, d5: 3799
- Perturb-seq pooled growth sgRNA counts, d10: 4065
- Perturb-seq pooled growth sgRNA counts, T0: 5433

Substance: HSPA9_−_137911079.23-P1P2_08: sgRNA targeting HSPA9, GGAGCTGCTCGATGCGGTGG, SEQ ID NO: 134 (listed as DNA, chemistry not fully specified)
- Perturb-seq pooled growth sgRNA counts, d5: 2803
- Perturb-seq pooled growth sgRNA counts, d10: 2726
- Perturb-seq pooled growth sgRNA counts, T0: 3137

Substance: EIF2S1_−_67827080.23-P1P2_06: sgRNA targeting EIF2S1, GAGCGAAGCGCGCGCTGAGG, SEQ ID NO: 137 (listed as DNA, chemistry not fully specified)
- Perturb-seq pooled growth sgRNA counts, d5: 1718
- Perturb-seq pooled growth sgRNA counts, d10: 2436
- Perturb-seq pooled growth sgRNA counts, T0: 4549

Substance: TUBB_+_30688126.23-P1_03: sgRNA targeting TUBB, GCGGCAGCAAGGTTCTGAGA, SEQ ID NO: 108 (listed as DNA, chemistry not fully specified)
- Perturb-seq pooled growth sgRNA counts, d5: 1680
- Perturb-seq pooled growth sgRNA counts, d10: 1221
- Perturb-seq pooled growth sgRNA counts, T0: 4751

Substance: CAD_+_27440280.23-P1P2_00: sgRNA targeting CAD, GGCTGGAGAGAAGCCGGGCG, SEQ ID NO: 20 (listed as DNA, chemistry not fully specified)
- Perturb-seq pooled growth sgRNA counts, d5: 2464
- Perturb-seq pooled growth sgRNA counts, d10: 785
- Perturb-seq pooled growth sgRNA counts, T0: 8671

Substance: DBR1_+_137893744.23-P1P2_05: sgRNA targeting DBR1, GTTTGCAGGAGTGTACACCC, SEQ ID NO: 81 (listed as DNA, chemistry not fully specified)
- Perturb-seq pooled growth sgRNA counts, d5: 6705
- Perturb-seq pooled growth sgRNA counts, d10: 4748
- Perturb-seq pooled growth sgRNA counts, T0: 6569

Substance: HSPA5_+_128003624.23-P1P2_04: sgRNA targeting HSPA5, GAGCCGAGAAGGCGACGGTG, SEQ ID NO: 89 (listed as DNA, chemistry not fully specified)
- Perturb-seq pooled growth sgRNA counts, d5: 3304
- Perturb-seq pooled growth sgRNA counts, d10: 4282
- Perturb-seq pooled growth sgRNA counts, T0: 11091

Substance: POLR2H_+_184081251.23-P1P2_00: sgRNA targeting POLR2H, GGGGCCACGAGAGCAGCAGA, SEQ ID NO: 28 (listed as DNA, chemistry not fully specified)
- Perturb-seq pooled growth sgRNA counts, d5: 947
- Perturb-seq pooled growth sgRNA counts, d10: 1103
- Perturb-seq pooled growth sgRNA counts, T0: 9498

Substance: non-targeting_00283: non-targeting negative control sgRNA, GGGCCGACGGATAGGAGGGA, SEQ ID NO: 166 (listed as DNA, chemistry not fully specified) [reference compound]
- Perturb-seq pooled growth sgRNA counts, d5: 18547
- Perturb-seq pooled growth sgRNA counts, d10: 27936
- Perturb-seq pooled growth sgRNA counts, T0: 8188

Substance: GINS1_−_25388381.23-P1P2_14: sgRNA targeting GINS1, GGACTAGAACGAAAGGAGCG, SEQ ID NO: 97 (listed as DNA, chemistry not fully specified)
- Perturb-seq pooled growth sgRNA counts, d5: 5833
- Perturb-seq pooled growth sgRNA counts, d10: 6093
- Perturb-seq pooled growth sgRNA counts, T0: 6443

Substance: RAN_+_131356438.23-P1P2_04: sgRNA targeting RAN, GGCGGTCGCGGCGCTTAGGG, SEQ ID NO: 72 (listed as DNA, chemistry not fully specified)
- Perturb-seq pooled growth sgRNA counts, d5: 11409
- Perturb-seq pooled growth sgRNA counts, d10: 14870
- Perturb-seq pooled growth sgRNA counts, T0: 6001

Substance: TUBB_+_30688126.23-P1_00: sgRNA targeting TUBB, GCGGCAGGAAGGTTCTGAGA, SEQ ID NO: 23 (listed as DNA, chemistry not fully specified)
- Perturb-seq pooled growth sgRNA counts, d5: 2722
- Perturb-seq pooled growth sgRNA counts, d10: 1125
- Perturb-seq pooled growth sgRNA counts, T0: 13570

Substance: SEC61A1_−_127771295.23-P1_02: sgRNA targeting SEC61A1, GGCGCTGACGTGTCTCTCGG, SEQ ID NO: 84 (listed as DNA, chemistry not fully specified)
- Perturb-seq pooled growth sgRNA counts, d5: 4030
- Perturb-seq pooled growth sgRNA counts, d10: 4238
- Perturb-seq pooled growth sgRNA counts, T0: 9991

Substance: POLR2H_+_184081251.23-P1P2_12: sgRNA targeting POLR2H, GGGGCCACGAGAGCAGGAGA, SEQ ID NO: 117 (listed as DNA, chemistry not fully specified)
- Perturb-seq pooled growth sgRNA counts, d5: 4854
- Perturb-seq pooled growth sgRNA counts, d10: 5996
- Perturb-seq pooled growth sgRNA counts, T0: 5334

Substance: DBR1_+_137893744.23-P1P2_00: sgRNA targeting DBR1, GTTTGCAGGAGTCTACACCC, SEQ ID NO: 78 (listed as DNA, chemistry not fully specified)
- Perturb-seq pooled growth sgRNA counts, d5: 9171
- Perturb-seq pooled growth sgRNA counts, d10: 3583
- Perturb-seq pooled growth sgRNA counts, T0: 13446

Substance: POLR2H_+_184081251.23-P1P2_08: sgRNA targeting POLR2H, GGGGCCACGCGAGCAGCAGA, SEQ ID NO: 116 (listed as DNA, chemistry not fully specified)
- Perturb-seq pooled growth sgRNA counts, d5: 3492
- Perturb-seq pooled growth sgRNA counts, d10: 3869
- Perturb-seq pooled growth sgRNA counts, T0: 6134

Substance: ATP5E_−_57607036.23-P1P2_01: sgRNA targeting ATP5E, GGTGTCCTGGGGCACTCTGT, SEQ ID NO: 152 (listed as DNA, chemistry not fully specified)
- Perturb-seq pooled growth sgRNA counts, d5: 10487
- Perturb-seq pooled growth sgRNA counts, d10: 8806
- Perturb-seq pooled growth sgRNA counts, T0: 7774

Substance: BCR_+_23523092.23-P1P2_13: sgRNA targeting BCR, GCGCGCGGGGCCCATCTCAG, SEQ ID NO: 130 (listed as DNA, chemistry not fully specified)
- Perturb-seq pooled growth sgRNA counts, d5: 5668
- Perturb-seq pooled growth sgRNA counts, d10: 7063
- Perturb-seq pooled growth sgRNA counts, T0: 4304

Substance: RPS14_+_149829238.23-P1P2_01: sgRNA targeting RPS14, GAGACCCGGGCGCGACAATC, SEQ ID NO: 46 (listed as DNA, chemistry not fully specified)
- Perturb-seq pooled growth sgRNA counts, d5: 1474
- Perturb-seq pooled growth sgRNA counts, d10: 1385
- Perturb-seq pooled growth sgRNA counts, T0: 4954

Substance: MTOR_+_11322547.23-P1P2_05: sgRNA targeting MTOR, GGGCAGGGGGCTTGAAGCGG, SEQ ID NO: 148 (listed as DNA, chemistry not fully specified)
- Perturb-seq pooled growth sgRNA counts, d5: 4083
- Perturb-seq pooled growth sgRNA counts, d10: 3324
- Perturb-seq pooled growth sgRNA counts, T0: 5595

Substance: CDC23_−_137548987.23-P1P2_00: sgRNA targeting CDC23, GACAGCCACCGGGACCATGG, SEQ ID NO: 18 (listed as DNA, chemistry not fully specified)
- Perturb-seq pooled growth sgRNA counts, d5: 757
- Perturb-seq pooled growth sgRNA counts, d10: 854
- Perturb-seq pooled growth sgRNA counts, T0: 8182

Substance: POLR1D_+_28196016.23-P1_08: sgRNA targeting POLR1D, GGGAAGCAGGGACCGACCGA, SEQ ID NO: 74 (listed as DNA, chemistry not fully specified)
- Perturb-seq pooled growth sgRNA counts, d5: 4205
- Perturb-seq pooled growth sgRNA counts, d10: 1986
- Perturb-seq pooled growth sgRNA counts, T0: 16414

Substance: HSPA5_+_128003624.23-P1P2_01: sgRNA targeting HSPA5, GAACCGAGTAGGCGACGGTG, SEQ ID NO: 91 (listed as DNA, chemistry not fully specified)
- Perturb-seq pooled growth sgRNA counts, d5: 3124
- Perturb-seq pooled growth sgRNA counts, d10: 3812
- Perturb-seq pooled growth sgRNA counts, T0: 7580

Substance: ATP5E_−_57607036.23-P1P2_16: sgRNA targeting ATP5E, GGTGTCCAGGGGCGCTCTGT, SEQ ID NO: 153 (listed as DNA, chemistry not fully specified)
- Perturb-seq pooled growth sgRNA counts, d5: 9571
- Perturb-seq pooled growth sgRNA counts, d10: 9964
- Perturb-seq pooled growth sgRNA counts, T0: 6210

Substance: ATP5E_−_57607036.23-P1P2_00: sgRNA targeting ATP5E, GGTGTCCAGGGGCACTCTGT, SEQ ID NO: 151 (listed as DNA, chemistry not fully specified)
- Perturb-seq pooled growth sgRNA counts, d5: 12109
- Perturb-seq pooled growth sgRNA counts, d10: 9475
- Perturb-seq pooled growth sgRNA counts, T0: 8197

Substance: RPL9_+_39460483.23-P1P2_00: sgRNA targeting RPL9, GGATGTTTCTGTGCTCGTGG, SEQ ID NO: 5 (listed as DNA, chemistry not fully specified)
- Perturb-seq pooled growth sgRNA counts, d5: 1141
- Perturb-seq pooled growth sgRNA counts, d10: 1014
- Perturb-seq pooled growth sgRNA counts, T0: 10355

Substance: RPS15_−_1438413.23-P1P2_02: sgRNA targeting RPS15, GACCAAGGCGATCTCTTCTG, SEQ ID NO: 62 (listed as DNA, chemistry not fully specified)
- Perturb-seq pooled growth sgRNA counts, d5: 3113
- Perturb-seq pooled growth sgRNA counts, d10: 3548
- Perturb-seq pooled growth sgRNA counts, T0: 5051

Substance: HSPA5_+_128003624.23-P1P2_06: sgRNA targeting HSPA5, GAGCCGAGTAGACGACGGTG, SEQ ID NO: 92 (listed as DNA, chemistry not fully specified)
- Perturb-seq pooled growth sgRNA counts, d5: 17649
- Perturb-seq pooled growth sgRNA counts, d10: 23714
- Perturb-seq pooled growth sgRNA counts, T0: 10180
